These results are taken from ChEMBL document CHEMBL5131386, “Synthesis and biological evaluation of novel schisanhenol derivatives as potential hepatoprotective agents” (Eur J Med Chem, 2022).

Calls of active or inactive are those of the source. No cut-off for these calls is given here.

Test [1] relates to L02. Briefly: Hepatoprotective activity against concanavalin A induced liver injury in human HL7702 cells assessed as cell survival rate at 5 uM preincubated for 12 hrs followed by concanavalin A stimulation for 12 hrs by MTT assay (reference value: 51.37%). It is filed as functional. As to conditions: time 24 hrs, read-out: Survival. (In general: Tetrazolium dyes change colour on reduction, which living cells bring about.)

The test system of test [2] is L02. Nature of the test: Hepatoprotective activity against concanavalin A induced livery injury in human HL7702 assessed as decrease in IL-6 expression level at 5 uM preincubated for 12 hrs followed by concanavalin A stimulation for 12 hrs by Western blot analysis. It is filed as functional, cell-based. As to conditions: time 24.0 hrs. (In general: In western blotting, separated proteins are transferred to a membrane and probed.)

The subject of test [3] is L02. Briefly: Hepatoprotective activity against concanavalin A induced livery injury in human HL7702 assessed as decrease in IL-6 expression level at 5 uM preincubated for 24 hrs followed by concanavalin A stimulation for 12 hrs by ELISA assay. As to conditions: time 36.0 hrs. It counts as functional, cell-based.
In test [4] the test system is Mus musculus. Briefly: Hepatoprotective activity against concanavalin A induced C57BL/6 mouse livery injury model assessed as decrease in serum AST level at 150 mg/kg, ip once daily for 2 weeks followed by concanavalin A stimulation and measured after 12 hrs. It is filed as functional, organism-based.
In test [5] the test system is Mus musculus. Nature of the test: Hepatoprotective activity against concanavalin A induced C57BL/6 mouse livery injury model assessed as decrease in cleaved caspase 3 level at 150 mg/kg, ip once daily for 2 weeks followed by concanavalin A stimulation and measured after 12 hrs by Western blot analysis. It counts as functional, organism-based.
Test [6] deals with Mus musculus. Nature of the test: Hepatoprotective activity against concanavalin A induced C57BL/6 mouse livery injury model assessed as decrease in serum ALT level at 150 mg/kg, ip once daily for 2 weeks followed by concanavalin A stimulation and measured after 12 hrs. It counts as functional, organism-based.
In test [7] the test system is Mus musculus. Briefly: Hepatoprotective activity against concanavalin A induced C57BL/6 mouse livery injury model assessed as decrease in Bax level at 150 mg/kg, ip once daily for 2 weeks followed by concanavalin A stimulation and measured after 12 hrs by Western blot analysis. It is filed as functional, organism-based.
The test system of test [8] is Mus musculus. Nature of the test: Hepatoprotective activity against concanavalin A induced C57BL/6 mouse livery injury model assessed as increase in Bcl-2 level at 150 mg/kg, ip once daily for 2 weeks followed by concanavalin A stimulation and measured after 12 hrs by Western blot analysis. It counts as functional, organism-based.
The test system of test [9] is Mus musculus. Briefly: Hepatoprotective activity against concanavalin A induced C57BL/6 mouse livery injury model assessed as decrease in STAT3 phosphorylation level at 150 mg/kg, ip once daily for 2 weeks followed by concanavalin A stimulation and measured after 12 hrs by Western blot analysis. It counts as functional, organism-based.
For test [10], the system named is Mus musculus. Briefly: Hepatoprotective activity against concanavalin A induced C57BL/6 mouse livery injury model assessed as decrease in JAK2 phosphorylation level at 150 mg/kg, ip once daily for 2 weeks followed by concanavalin A stimulation and measured after 12 hrs by Western blot analysis. It is filed as functional, organism-based.
Test [11] concerns Mus musculus. Briefly: Hepatoprotective activity against concanavalin A induced C57BL/6 mouse livery injury model assessed as decrease in serum IL-6 level at 150 mg/kg, ip once daily for 2 weeks followed by concanavalin A stimulation and measured after 12 hrs by ELISA. It counts as functional, organism-based.
The subject of test [12] is Mus musculus. Briefly: Hepatoprotective activity against concanavalin A induced C57BL/6 mouse livery injury model assessed as decrease in severity of liver damage at 150 mg/kg, ip once daily for 2 weeks followed by concanavalin A stimulation and measured after 12 hrs by H&E staining based […]. It is filed as functional, organism-based.
For test [13], the system named is Mus musculus. Nature of the test: Hepatoprotective activity against concanavalin A induced C57BL/6 mouse livery injury model assessed as decrease in phosphorylated STAT3 level in liver at 150 mg/kg, ip once daily for 2 weeks followed by concanavalin A stimulation and measured after 12 hrs by DAB staining based immunohistological anlaysis. It counts as functional, organism-based.

The subject of test [14] is Mus musculus. Nature of the test: Hepatoprotective activity against concanavalin A induced C57BL/6 mouse livery injury model assessed as decrease in cleaved caspase-3 level in liver at 150 mg/kg, ip once daily for 2 weeks followed by concanavalin A stimulation and measured after 12 hrs by DAB staining based immunohistological anlaysis. It is filed as functional, organism-based.

Turning to `COC(=O)c1ccc(-c2ccc(C(=O)OC)cc2)cc1` [BIPHENYL DIMETHYL DICARBOXYLATE], the viability at 5 µM in the test with L02 [1] was 63.9%. Besides, the outcome in the test on L02 [2], in the test on L02 [3], with Mus musculus [4], in the test on Mus musculus [5], with Mus musculus [6] and in the test on Mus musculus [7] was Active. Besides, the result in the test with Mus musculus [8], with Mus musculus [9], with Mus musculus [10], in the test on Mus musculus [11], with Mus musculus [12] and in the test with Mus musculus [13] was Active. Besides, the result with Mus musculus [14] was Active.
